Measurements as given in patent publication US11078228B2, “Ectonucleotidase inhibitors and methods of use thereof” (Calithera Biosciences, Inc., priority 2018, dated 2021).

Biological target: recombinant CD73 (Homo sapiens (Human), UniProt P21589)
Assay: Assay 1: Inhibition of the CD73 enzyme in vitro (0.5 nM CD73, 30 min room temperature, Malachite Green)
Type: biochemical
Conditions: 0.5 nM CD73, 30 minutes at room temperature
Description: For measurements of soluble CD73 enzyme activity, recombinant CD73 was obtained from R&D Systems, Cat. No. 5795-EN-010. […] Reactions were allowed to proceed for 30 minutes at room temperature before the addition of 100 μL Malachite Green (Cell Signaling Technology, Cat. No. 12776). After 5 minutes at room temperature, absorbance at 630 nm was determined on a microplate spectrophotometer. The concentration of inorganic phosphate was determined using a phosphate standard curve.

Sequence of recombinant CD73 (P21589 27-547): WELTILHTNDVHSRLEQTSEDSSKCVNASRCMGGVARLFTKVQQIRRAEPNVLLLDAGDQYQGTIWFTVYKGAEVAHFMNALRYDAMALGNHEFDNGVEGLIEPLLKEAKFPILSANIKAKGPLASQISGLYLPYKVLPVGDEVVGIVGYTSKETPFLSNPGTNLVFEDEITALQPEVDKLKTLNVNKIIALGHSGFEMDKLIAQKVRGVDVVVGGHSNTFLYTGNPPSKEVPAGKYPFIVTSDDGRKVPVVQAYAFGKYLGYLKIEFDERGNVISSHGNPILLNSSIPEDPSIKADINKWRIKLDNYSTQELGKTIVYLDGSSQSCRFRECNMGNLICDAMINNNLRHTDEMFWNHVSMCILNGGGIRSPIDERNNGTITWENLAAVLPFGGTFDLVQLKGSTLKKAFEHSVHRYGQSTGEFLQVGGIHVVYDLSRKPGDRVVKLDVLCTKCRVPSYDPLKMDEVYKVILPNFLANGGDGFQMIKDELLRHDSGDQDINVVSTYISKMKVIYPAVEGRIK

IC50	Compound
204 nM	C[C@@]1(O)[C@@H](COC(Cc2ccc(-c3ccccc3C(=O)O)cc2)(C(=O)O)c2nnn[nH]2)O[C@@H](n2cnc3c(N)nc(Cl)nc32)[C@@H]1O (stereo partly drawn) [Example 201, 4′-(2-(((2R,3S,4R,5R)-5-(6-amino-2-chloro-9H-purin-9-yl)-3,4-dihydroxy-3-methyltetrahydrofuran-2-yl)methoxy)-2-carboxy-2-(1H-tetrazol-5-yl)ethyl)-[1,1′-biphenyl]-2-carboxylic acid]
148 nM	C#C[C@@]1(O)[C@@H](COP(=O)(O)CP(=O)(O)O)O[C@@H](n2cnc3c(N)nc(Cl)nc32)[C@@H]1O [Example 202, (((((2R,3S,4R,5R)-5-(6-amino-2-chloro-9H-purin-9-yl)-3-ethynyl-3,4-dihydroxytetrahydrofuran-2-yl)methoxy)(hydroxy)phosphoryl)methyl)phosphonic acid]
4.2 nM	C#C[C@@]1(O)[C@@H](COP(=O)(O)CP(=O)(O)O)O[C@@H](n2cnc3c(NCc4ccccc4)nc(Cl)nc32)[C@@H]1O [Example 203, (((((2R,3S,4R,5R)-5-(6-(benzylamino)-2-chloro-9H-purin-9-yl)-3-ethynyl-3,4-dihydroxytetrahydrofuran-2-yl)methoxy)(hydroxy)phosphoryl)methyl)phosphonic acid]
100 nM	C#C[C@@]1(O)[C@@H](COCP(=O)(O)O)O[C@@H](n2cnc3c(NCc4ccccc4)nc(Cl)nc32)[C@@H]1O [Example 204, ((((2R,3S,4R,5R)-5-(6-(benzylamino)-2-chloro-9H-purin-9-yl)-3-ethynyl-3,4-dihydroxytetrahydrofuran-2-yl)methoxy)methyl)phosphonic acid]
12 nM	C[C@@]1(O)[C@@H](COP(=O)(O)CP(=O)(O)O)O[C@@H](n2cnc3c(NCc4ccccc4)nc(Cl)nc32)[C@@H]1O [Example 205, (((((2R,3S,4R,5R)-5-(6-(benzylamino)-2-chloro-9H-purin-9-yl)-3,4-dihydroxy-3-methyltetrahydrofuran-2-yl)methoxy)(hydroxy)phosphoryl)methyl)phosphonic acid]
